Experimental data from publication PMC11026381, “Late-stage meta-C–H alkylation of pharmaceuticals to modulate biological properties and expedite molecular optimisation in a single step” (Nature Communications, 2024).
≈ marks a conversion by molar mass, not a printed value.

What was measured:
[1] = Metabolic stability in human liver microsomes (CLint HLM); format: in vitro ADME; conditions: 1 mg/mL microsomal protein, 1 mM NADPH, 37 °C; for microsomal CLint at 1 μM: both sexes, human, liver microsomes, pH 7.4, measured on the labelled compound itself, n = 1, read-out: CLint HLM (intrinsic clearance in human liver microsomes); for CLint HLM (intrinsic clearance in human liver microsomes): measured on the labelled compound itself, 1 μM, n = 1
Procedure: Metabolic stability in human liver microsomes (CLint HLM)
Human liver microsomes were defrosted on ice and diluted to 1 mg/mL of microsomal protein in phosphate buffer (0.1 M, pH 7.4). Compounds at 1 μM were incubated with the liver microsome suspensions and 1 mM NADPH at 37 °C in a 96-well plate. At 0.5, 5, 10, 15, 20 and 30 min, aliquots of 30 μL were transferred to a 96-well plate containing 120 μL MeCN. This plate was centrifuged for 20 min and supernatant was removed and diluted with H2O (1:1) before analysis by LC-MS/MS (Waters Xevo-TQS). Peak areas were determined from extracted ion chromatograms, and the in vitro intrinsic clearance (in vitro CLint, in μL/min/mg microsomal protein) of parent compound was calculated from the slope in the regression analysis of the natural logarithm of parent concentration vs. time curve.
Human Liver Microsomes (InVitroCYPTM 150-Donor, Mixed Gender) were harvested and supplied by BioIVT (Product No. X008070, Lot No. QQY). […]
(§1) The modulation of pharmaceutically relevant properties on meta-C–H alkylation is shown below in Supplementary Fig. 68, with a selection of physicochemical and DMPK data including solubility , LogD, human plasma protein binding (Prot. Bind.) and intrinsic clearance (CLint) in human liver microsomes (HLM) or rat hepatocytes (Rat Hep.) .

[2] = Fraction unbound in human plasma (Prot. Bind.), equilibrium dialysis; format: in vitro ADME; conditions: 5 μM, dialysis at 37 °C for 18 hours
Text: (§2) 5. Pharmaceutically relevant properties modulation
(§3) Product analogues 5e, 6a-6k obtained after late-stage meta-C–H alkylation of the pharmaceutically active compound Emapunil (4e) were subjected to a range of fundamental in vitro drug discovery assays. To prevent hydrolysis of ester groups present on these analogues during biological testing (in order to compare the clearance and metabolic stability between these drug derivatives), their corresponding free acids 5e’, 6a’-6k’ were synthesised (see page S54) and subjected to similar assays.
(§4) The experimental methods used for these physicochemical & drug metabolism and pharmacokinetics (DMPK) assays are described below 11. […]
Fraction unbound in human plasma (Prot. Bind.)
Equilibrium dialysis of compounds was used to assess the fraction unbound in human plasma. Stock solutions of compounds dissolved in DMSO were pooled into cassettes with up to 10 compounds in each cassette with a concentration of 1 mM. The pooled stock solutions were diluted in plasma to a compound concentration of 5 μM. Warfarin, propranolol and metoprolol were used as reference compounds in each run. The equilibrium dialysis device (RED, Thermo Fischer Scientific Inc., Rockford, USA) was used for dialysis against phosphate buffer (pH 7.4) at 37 °C for 18 hours. Calibration curves ranging from 0.001 to 7 μM were made using aliquots of the 7 μM spiked plasma pools that were transferred to a new plate followed by serial dilutions with blank plasma. Calibration curve samples and dialysis samples were precipitated with MeCN and after centrifugation, supernatants were removed and analysed using LC-MS/MS (Waters Xevo-TQS). Fraction unbound in the incubation was calculated as the concentration in the media buffer sample divided by the concentration in the plasma sample. The fraction unbound was reported as the median value.

[3] = Octanol/water partitioning (LogD), shake-flask method; format: physicochemical; conditions: n = 1; for LogD (octanol): 1-octanol / phosphate buffer pH 7.4, 20 °C; for logD: 1-octanol/phosphate buffer, pH 7.4, 1-octanol / phosphate buffer pH 7.4, 20 °C
Text: as §2, §3, §4
Octanol/water partitioning (LogD)
Partitioning of compounds between 1 -octanol and phosphate buffer (0.1 M, pH 7.4) at 20 °C were determined using a modified version of the shake -flask method described by Leo et al13. Compounds were dissolved in a 96 -well plate, in 400 μL octanol, and 400 μL of buffer was added to each well. The plate was vigorously stirred for 5 min and then put on an Edmund Bühler shaker (Edmund Bühler GmbH, Hechingen, Germany) at 20 °C for 18 hours. Aliquots of 5 μL octanol were transferred and diluted with 495 μL MeCN/H2O (1:1) and, to avoid contamination of the buffer, the rest of the octanol was removed before 150 μL of buffer samples were transferred. Octanol and buffer samples were diluted with MeCN/H2O (1:1) in four steps of 10 times to yield octanol samples diluted 10 2 to 106 times and buffer samples diluted 1 to 104 times. LC-MS/MS (Waters Xevo-TQS) was used for analysis, and distribution coefficient at pH 7.4 (LogD7.4) was calculated from the integrated peak areas of the samples in the linear MS response range. LogD7.4 results were reported as median values. […]

[4] = Metabolic stability in male Han Wistar rat hepatocytes (CLint Rat Hep.); format: in vitro ADME; conditions: measured on the labelled compound itself, 1 μM, 10^6 viable cells/mL, 37 °C, n = 1
Procedure: Metabolic stability in male Han Wistar rat hepatocytes (CLint Rat Hep.) Hepatocyte metabolic stability was determined in accordance with the method described by Jacobson et al14. Cryopreserved hepatocytes at a concentration of 10 6 viable cells/mL were used. After thawing, hepatocytes were incubated for 10 min to warm to 37 °C, and compounds dissolved in MeCN were […]
incubation system was mixed and 20 μL aliquots were transferred at each time point to wells in a separate plate filled with 80 μL MeCN to stop the reaction. The quenching plate was then vortexed followed by centrifugation, and supernatants were analysed by LC-MS/MS (Waters Xevo-TQS). Peak areas were determined from extracted ion chromatograms, and the in vitro intrinsic clearance (in vitro CLint, in μL/min/10^6 cells) of parent compound was calculated from the slope in the regression analysis of the natural logarithm of parent concentration vs. time curve. Rat Hepatocytes (Cryosuspension, Male Wistar Hannover ) were harvested and s upplied by BioIVT (Product No. M00065, Lot No. DVO).
as §1

[5] = Thermodynamic solubility, shake-flask approach, phosphate buffer pH 7.4; format: physicochemical; conditions: pH 7.4, phosphate buffer 0.1 M, 20 °C, n = 1
Text: as §2, §3
The experimental methods used for these physicochemical & drug metabolism and pharmacokinetics (DMPK) assays are described below 11.
This method measures the thermodynamic solubility of compounds based on a shake-flask approach12.
The nature of the solid state was unknown in these experiments and may be subject to variability. The compounds were dissolved in DMSO (30 μL, 10 mM) in glass vials, and were dried using a Genevac vacuum evaporator (Genevac Ltd, Ipswich, UK). When the samples were dry, 300 μL of phosphate buffer (0.1 M, pH 7.4) was added to the glass vials. The vials were put on an Edmund Bühler shaker (Edmund Bühler GmbH, Hechingen, Germany) at 20 °C for 18 hours. Samples were filtered through a Whatman GF/B 96-well filter and 20 μL of filtrated samples were transferred to separate wells in a plate containing 180 μL MeCN/H2O (1:1). Standards were prepared by diluting the 10 mM compound solutions with MeCN/H2O (1:1) to 200 μM. Three further dilution steps of 10 times were applied to both the samples and standards and they were all analy sed by LC-MS/MS (Waters Xevo-TQS). Solubility was determined using the integrated peak areas of the samples in the linear MS response range. […]

[6] = aqueous buffer, thermodynamic from solid

microsomal CLint at 1 μM [1] [µL/min/mg] | CLint HLM (intrinsic clearance in human liver microsomes) [1] [µL/min/mg] | Prot. Bind. (% free), human plasma protein binding ([2]; n = 1) [% free] | LogD (octanol) [3] | logD [3] | solubility at 18 h [5, 6] [µM] | solubility at 18 h [5] [µM] | Prot. Bind. (% free), human plasma protein binding ([2]; n = 1, listed as 6i’) [% free] | Prot. Bind. (% free), human plasma protein binding ([2]; n = 1, listed as 6j’) [% free] | SMILES | CLint Rat Hep. (intrinsic clearance in rat hepatocytes) [4] [μL/min/10^6] | CLint Rat Hep. (intrinsic clearance in rat hepatocytes) ([4]; listed as 6h’) [μL/min/10^6] | CLint Rat Hep. (intrinsic clearance in rat hepatocytes) ([4]; listed as 6i’) [μL/min/10^6] | CLint Rat Hep. (intrinsic clearance in rat hepatocytes) ([4]; listed as 6j’) [μL/min/10^6] | CLint Rat Hep. (intrinsic clearance in rat hepatocytes) ([4]; listed as 6k’) [μL/min/10^6]
> 300 | 4.6 | 14.0 | -1.0 | 3.1 | 58 (≈ 30.7 µg/mL) | > 1000 |  |  | CCOC(=O)C1(c2cccc(-c3ncc4c(n3)n(CC(=O)N(CC)Cc3ccccc3)c(=O)n4C)c2)COC1 [6h] | > 300 | 19.3 |  |  | 
> 300 | < 3.0 | 7.8 | -0.7 | 2.9 | 104 (≈ 55.1 µg/mL) | > 1000 | 5.9 |  | CCN(Cc1ccccc1)C(=O)Cn1c(=O)n(C)c2cnc(-c3cccc(C4(C(=O)OC)CCOC4)c3)nc21 (stereo not drawn) [6i] | > 300 |  | 12.9 |  | 
> 300 | 7.6 | < 0.1 | > 3.6 |  | < 2.4 | 910 (≈ 629 µg/mL) |  | 0.8 | CCN(Cc1ccccc1)C(=O)Cn1c(=O)n(C)c2cnc(-c3cccc(C4(C(=O)OCc5ccccc5)CN(C(=O)OC(C)(C)C)C4)c3)nc21 [6j] | > 300 |  |  | 17.2 | 
> 300 | 24.1 | < 0.3 | > 3.2 |  | 6 (≈ 4.31 µg/mL) | 806 (≈ 579 µg/mL) |  |  | CCN(Cc1ccccc1)C(=O)Cn1c(=O)n(C)c2cnc(-c3cccc(C4(C(=O)OCc5ccccc5)CCN(C(=O)OC(C)(C)C)CC4)c3)nc21 [6k] | 157 |  |  |  | 18.0
